In US9624491B2, “Methods and compositions for the detection and treatment of cancer involving miRNAs and miRNA inhibitors and targets” (Memorial Sloan Kettering Cancer Center, priority 2010, dated 2017):

How the values were obtained:
[1] = test system: PTEN, BCL2L11, PHF6, IKZF1, NF1, FBXW7; assay: 3′UTR reporter, quantitative PCR and immunoblot assays of tumor suppressor genes in murine leukemias; assay type: cell-based; conditions: murine T-ALLs expressing NOTCH1 and miRNA, mRNA, protein
Method: Immunoblots of whole cell lysates were performed as described (Wendel, et al., 2004). Antibodies were against Bim/Bcl2l11 (AAP-330, 1:1000, Assay Designs), Nf1 (sc67, 1:100, Santa Cruz), Cdc4/Fbxw7 (ab7405, 1:500, Abeam), Ikzf1 (sc-13039, 1:500, Santa Cruz), Phf6 (NB100-79861, 1:1000, Novus Biologicals), Pten (9559, 1:1000, Cell Signaling), tubulin (1:5000; Sigma, B-5-1-2) and actin (1:5000; Sigma, AC-15).
Total RNA and miRNA-enriched RNA was extracted using the Allprep DNA/RNA/Protein and miRNeasy Mini kits. Pathological diagnosis was by expert hematopathologists at Weill Cornell Medical Center. cDNA synthesis, PCR and analysis by the ΔΔ Ct method were as described (Mavrakis, et al., 2008) and utilized Taqman Gene Expression Assays: Bcl2l11 (Mm00437796_m1), BCL2L11 (Hs00197982_m1), Pten (Mm01212532_m1), PTEN (Hs02621230_s1), Nf1 (Mm00812430_m1), NF1 (Hs01035104_m1), Ikzf1 (Mm01187878_m1), IKZF1 (Hs00172991_m1), Fbxw7 (Mm00504452_m1), FBXW7 (Hs00217794_m1), Phf6 (Mm00804415_m1), and Mouse GAPD (GAPDH) (4352932, Applied Biosystems). Expression was normalized to RNU6B (001093, Applied Biosystems).
The mouse FBXW7 (bp 2793-4139; acc. no. NM_001177773), human NF1 (bp 10033-10666; acc. no NM_000267), human PHF6 (bp position 3271-4299; acc. no. NM_001015877) and Bim (bp. 3155-4773; acc. no. NM_009754) 3′UTR fragments were generated by PCR and cloned into the psi-CHECK-2 vector (Promega) with the exception of the IKZF1 3′UTR, which was purchased from Genecopoeia (cat no. HmiT000397b, by 2343-4471 of UTR). The assays were performed as described (Xiao, et al., 2008).

[2] = test system: 3′UTR of Pten, Ppp2r5e, Prkaa1 and Bim; assay: Reporter assay for 3′UTR repression by miR-19; assay type: cell-based; conditions: wild type vs mutated miR-19 binding sites
Excerpt: FIG. 14. Reporter assay for 3′ untranslated region (3′UTR) repression by miR-19. The 3′UTR of the indicated genes was subcloned into a dual luciferase reporter construct (pSiCheck2) and inhibition of the 3′UTR by miR-19 is indicated as mean±SD ratio of Renila to Firefly luciferase activity (RLuc/Luc). WT indicates the wild type 3′UTR. M indicates the 3′UTR where the miR-19 binding site has been mutated. In the case of Pten, one site (M1) or both sites (M1+M2) were mutated [* indicates significant (p<0.05) changes; ** indicates non-significant (p>0.05) changes.]
The Dock5, Ppp2r5e, Prkaa1, and Bim 3′-UTR fragments were generated by PCR and cloned into the psi-CHECK-2 vector (Promega). The assays were performed as described (Xiao, et al., 2008). Binding site mutants were generated by site-directed mutagenesis.

[3] = test system: PPP2R5E, PRKAA1, BIM, PTEN, Bnip3, phosphorylated S6; assay: Immunoblot on lysates of transduced FL5-12 cells; assay type: cell-based, murine
Method: Immunoblots were performed from whole cell lysates as described (Wendel, et al., 2004). Briefly, 50 μg of protein/sample were resolved on SDS-PAGE gels and transferred to Immobilon-P-membranes (Millipore). Antibodies were against Prkaa1 (2532, 1:1000, Cell Signaling), Bim/Bcl2L11 (AAP-330, 1:1000, Assay Designs), FoxO1 (94545, 1:1000, Cell Signaling), FoxO3a (9467, 1:1000, Cell Signaling) Phospho-FoxO3a (94665, 1:1000, Cell Signaling), Ppp2r5e (NB 100-845, NOVUS), Pten (9559, 1:1000, Cell Signaling), tubulin (1:5000; Sigma, B-5-1-2), actin (1:5000; Sigma, AC-15), Bnip3 (3769, 1:1000, Cell Signaling), phosphorylated S6 (2215, 1:1000, Cell Signaling), phosphorylated Akt (4058, 1:1000, Cell Signaling) and Dock5 [a generous gift from Alan Hall (MSKCC)]. Enhanced chemiluminescence was used for detection (ECL, Amersham).

miR-19: miRNA of the 17˜92 cluster, UGUGCAAAUCCAUGCAAAACUGA (SEQ ID NO: 2); seed family in Table 3 (expressed or natural sequence; listed as Homo sapiens)
regulation of tumor suppressor genes [1]: regulates PTEN and BCL2L11 expression | 3′UTR inhibition (RLuc/Luc) [2]: direct 3′ untranslated region (UTR) inhibition via the miR-19 binding sites | Bnip3 protein ([3]; FL5-12 cells): neither miR-19 nor the antagomir had an effect on Bnip3 | PTEN protein ([3]; FL5-12 cells): no detectable effect on PTEN protein | miR-19 target protein levels ([3]; FL5-12 cells): clear reduction in PPP2R5E, PRKAA1, and BIM | ribosomal S6 phosphorylation ([3]; FL5-12 cells withdrawn from IL3 for 12 hours): directly activated ribosomal S6 phosphorylation
